Here are results for five molecules from patent publication US20240252488A1 (KOREA RESEARCH INSTITUTE OF CHEMICAL TECHNOLOGY, priority 2020, published 2024).

Broadly, the Kd is a measure of binding affinity in units of concentration. A higher Kd goes with lower affinity.

The test system of one test is FADD−/− Jurkat cells. Kind of test: Necroptosis inhibition assay, TNF-α-induced necroptosis (CellTiter-Glo 2.0). The conditions noted are these: TNF-α 15 ng/mL; for Necroptosis inhibition assay (Rescue %) 1 μM: compound 1 μM; for Necroptosis inhibition assay (Rescue %) 10 μM: compound 10 μM. The class given is cell-based, human. An outline of the steps:
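Luminescent ATP measurement gave viability, from which cytotoxicity and necroptosis inhibition rate were derived. Before that, cells (5.0×10^5 cells/mL) saw compound at 0.1, 1 or 10 μM final for 30 minutes at room temperature, then TNF-α (15 ng/mL final) for 20 to 24 hours at 37° C.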
A general note: In ATP-based viability assays light output follows the ATP content of the culture.

Test [1] addresses T1, MLKL (Homo sapiens, UniProt Q8NB16).
T1 sequence (Q8NB16 1-471): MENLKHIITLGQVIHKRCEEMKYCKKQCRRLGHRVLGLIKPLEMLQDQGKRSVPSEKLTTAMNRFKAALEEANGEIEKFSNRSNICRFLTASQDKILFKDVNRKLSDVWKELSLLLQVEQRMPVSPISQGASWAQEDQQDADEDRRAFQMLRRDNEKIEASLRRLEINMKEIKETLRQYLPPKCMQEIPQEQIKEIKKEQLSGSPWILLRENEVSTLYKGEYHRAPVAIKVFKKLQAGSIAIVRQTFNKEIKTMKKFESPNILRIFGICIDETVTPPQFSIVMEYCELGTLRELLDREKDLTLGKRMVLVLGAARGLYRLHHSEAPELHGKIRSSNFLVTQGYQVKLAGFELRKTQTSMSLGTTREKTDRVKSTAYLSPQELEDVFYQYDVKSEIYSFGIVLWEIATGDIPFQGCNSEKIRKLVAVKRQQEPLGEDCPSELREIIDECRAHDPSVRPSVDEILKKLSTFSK
In words: MLKL degradation assay in HepG2 cell line (western blot). The class given is cell-based. Set-up: endogenous in cells; host or cells: HepG2 or HaCaT. The conditions noted are these: cell line not given; for Degradation assay (Degradation %) 1 μM: compound 1 μM; for Degradation assay (Degradation %) 10 μM: compound 10 μM. In a few lines:
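Cells seeded, next day medium swapped for compound-containing medium (final 1 or 10 μM) and incubated 20-24 h at 37 °C. Lysates in RIPA with protease/phosphatase inhibitors were protein-matched by BCA, run on SDS-PAGE and immunoblotted for MLKL.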

In test [2] the target is T1, MLKL. Kind of test: Measurement of binding affinity with MLKL receptor (competitive binding assay, Kd). More on the design: made in house; host or cells: HEK 293 cell line (T7 phage in E. coli BL21-derived host is also described). An outline of the steps:
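Competitive displacement of MLKL, expressed in HEK 293 cells and DNA-tagged for qPCR, from immobilized ligand on biotin-blocked beads. Compounds were added from 111× DMSO stocks (final DMSO 0.9%). Kinase left in the eluates was quantified by qPCR to give Kd.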

With `Nc1ncc(-c2cnn(C3CCN(C(=O)COC4CCN(C(=O)C5CCN(c6ccc7c(c6)C(=O)N(C6CCC(=O)NC6=O)C7=O)CC5)CC4)CC3)c2)nc1C(=O)O[C@@H](C(=O)Nc1ccc(F)cc1)c1ccccc1` (stereo partly drawn) [TDH-398, (R)-2-((4-fluorophenyl)amino)-2-oxo-1-phenylethyl 3-amino-6-(1-(1-(2-((1-(1-(2-(2,6-dioxopiperidin-3-yl)-1,3-dioxoisoindolin-5-yl)piperidine-4-carbonyl)piperidin-4-yl)oxy)acetyl)piperidin-4-yl)-1H-pyrazol-4-yl)pyrazine-2-carboxylate], in the test with FADD−/− Jurkat cells, the “Necroptosis inhibition assay (Rescue %) 1 μM” value was 36.81% and the “Necroptosis inhibition assay (Rescue %) 10 μM” value came to 30.39%. In addition, at MLKL [1], the “Degradation assay (Degradation %) 1 μM” value is listed as 88.25% and the “Degradation assay (Degradation %) 10 μM” value came out at 83.83%. Besides, the Kd at MLKL [2] turned out to be 8.9 nM.

`Nc1ncc(-c2cnn(C3CCN(C(=O)COC4CCN(C(=O)CNc5cccc6c5C(=O)N(C5CCC(=O)NC5=O)C6=O)CC4)CC3)c2)nc1C(=O)O[C@@H](C(=O)Nc1ccc(F)cc1)c1ccccc1` (stereo partly drawn) [TDH-395, (R)-2-((4-fluorophenyl)amino)-2-oxo-1-phenylethyl 3-amino-6-(1-(1-(2-((1-((2-(2,6-dioxopiperidin-3-yl)-1,3-dioxoisoindolin-4-yl)glycyl)piperidin-4-yl)oxy)acetyl)piperidin-4-yl)-1H-pyrazol-4-yl)pyrazine-2-carboxylate]: in the test with FADD−/− Jurkat cells, the “Necroptosis inhibition assay (Rescue %) 1 μM” value was 34.73% and the “Necroptosis inhibition assay (Rescue %) 10 μM” value is reported as 37.15%. At MLKL [1], the “Degradation assay (Degradation %) 1 μM” value was determined as 88.76% and the “Degradation assay (Degradation %) 10 μM” value was 89.67%. On MLKL [2], this molecule had a Kd of 6.1 nM.

On to `Nc1ncc(-c2cnn(C3CCN(C(=O)C4CCN(C(=O)C5CCN(c6ccc7c(c6)C(=O)N(C6CCC(=O)NC6=O)C7=O)CC5)CC4)CC3)c2)nc1C(=O)OC(C(=O)Nc1ccc(F)cc1)c1ccccc1` (stereo not shown) [TDH-274, 2-((4-fluorophenyl)amino)-2-oxo-1-phenylethyl 3-amino-6-(1-(1-(1-(1-(2-(2,6-dioxopiperidin-3-yl)-1,3-dioxoisoindolin-5-yl)piperidine-4-carbonyl)piperidine-4-carbonyl)piperidin-4-yl)-1H-pyrazol-4-yl)pyrazine-2-carboxylate], for which, in the test on FADD−/− Jurkat cells, the “Necroptosis inhibition assay (Rescue %) 1 μM” value worked out at 77.01% and the “Necroptosis inhibition assay (Rescue %) 10 μM” value is 57.62%. On MLKL [1], the “Degradation assay (Degradation %) 1 μM” value amounted to 56.81% and the “Degradation assay (Degradation %) 10 μM” value stood at 38.77%. This molecule also registered a Kd at MLKL [2] of 5.2 nM.

For the molecule `Nc1ncc(-c2cnn(C3CCN(C(=O)CC4CCN(c5cccc6c5C(=O)N(C5CCC(=O)NC5=O)C6=O)CC4)CC3)c2)nc1C(=O)O[C@@H](C(=O)Nc1ccc(F)cc1)c1ccccc1` (stereo partly drawn) [TDH-343, (R)-2-((4-fluorophenyl)amino)-2-oxo-1-phenylethyl 3-amino-6-(1-(1-(2-(1-(2-(2,6-dioxopiperidin-3-yl)-1,3-dioxoisoindolin-4-yl)piperidin-4-yl)acetyl)piperidin-4-yl)-1H-pyrazol-4-yl)pyrazine-2-carboxylate], in the test with FADD−/− Jurkat cells, the “Necroptosis inhibition assay (Rescue %) 1 μM” value turned out to be 12.75% and the “Necroptosis inhibition assay (Rescue %) 10 μM” value is reported as 14.42%. Moreover, at MLKL [1], the “Degradation assay (Degradation %) 1 μM” value turned out to be 31.43% and the “Degradation assay (Degradation %) 10 μM” value is reported as 43.78%. Further, the affinity on MLKL [2], expressed as Kd, was 11 nM.

As to `Nc1ncc(-c2cnn(C3CCN(C(=O)CC4CCN(C(=O)COc5ccc6c(c5)C(=O)N(C5CCC(=O)NC5=O)C6=O)CC4)CC3)c2)nc1C(=O)O[C@@H](C(=O)Nc1ccc(F)cc1)c1ccccc1` (stereo partly drawn) [TDH-338, (R)-2-((4-fluorophenyl)amino)-2-oxo-1-phenylethyl 3-amino-6-(1-(1-(2-(1-(2-((2-(2,6-dioxopiperidin-3-yl)-1,3-dioxoisoindolin-5-yl)oxy)acetyl)piperidin-4-yl)acetyl)piperidin-4-yl)-1H-pyrazol-4-yl)pyrazine-2-carboxylate], in the test on FADD−/− Jurkat cells, the “Necroptosis inhibition assay (Rescue %) 1 μM” value was determined as 50.8% and the “Necroptosis inhibition assay (Rescue %) 10 μM” value came out at 50.29%. In addition, on MLKL [1], the “Degradation assay (Degradation %) 1 μM” value amounted to 59.83% and the “Degradation assay (Degradation %) 10 μM” value worked out at 79.19%. This molecule gave a Kd on MLKL [2] of 5.5 nM.
